Measured values: ChEMBL document CHEMBL4346695, “Thiophenol-formaldehyde triazole causes apoptosis induction in ovary cancer cells and prevents tumor growth formation in mice model” (2019)
Calls of active or inactive are those of the source. The rule behind the calls is not given here.

What was measured:
[1] = tested on: Caov-3 cell line; assay: Induction of apoptosis in human Caov3 cells assessed as formation of apoptotic nuclei at 2.0 uM incubated for 48 hrs by Hoechst 33342 staining based fluorescent microscopic method; format: functional, cell-based
[2] = tested on: Caov-3 cell line; assay: Growth inhibition of human Caov3 cells incubated for 48 hrs by MTT assay; format: functional, cell-based
[3] = species on record: Homo sapiens; assay: Growth inhibition of human ES2 cells incubated for 48 hrs by MTT assay; format: functional
[4] = tested on: Caov-4; assay: Growth inhibition of human Caov4 cells incubated for 48 hrs by MTT assay; format: functional, cell-based
[5] = tested on: Caov-3 cell line; assay: Growth inhibition of human Caov3 cells at 0.5 uM incubated for 48 hrs by MTT assay; format: functional, cell-based
[6] = species on record: Homo sapiens; assay: Growth inhibition of human ES2 cells at 0.5 uM incubated for 48 hrs by MTT assay; format: functional
[7] = tested on: Caov-4; assay: Growth inhibition of human Caov4 cells at 0.5 uM incubated for 48 hrs by MTT assay; format: functional, cell-based
[8] = tested on: Caov-3 cell line; assay: Growth inhibition of human Caov3 cells at 2 uM incubated for 48 hrs by MTT assay relative to control; format: functional; conditions: Caov-3, 48 h, read-out: GI
[9] = tested on: Caov-4; assay: Growth inhibition of human Caov4 cells at 2 uM incubated for 48 hrs by MTT assay relative to control; format: functional; conditions: Caov-4, 48 h, read-out: GI
[10] = Growth inhibition of human ES2 cells at 2 uM incubated for 48 hrs by MTT assay relative to control; format: functional; conditions: ES-2, 48 h, read-out: GI
[11] = tested on: Caov-3 cell line; assay: Growth inhibition of human Caov3 cells at 0.25 uM incubated for 48 hrs by MTT assay; format: functional, cell-based
[12] = species on record: Homo sapiens; assay: Growth inhibition of human ES2 cells at 0.25 uM incubated for 48 hrs by MTT assay; format: functional
[13] = tested on: Caov-4; assay: Growth inhibition of human Caov4 cells at 0.25 uM incubated for 48 hrs by MTT assay; format: functional, cell-based
[14] = tested on: Caov-3 cell line; assay: Induction of apoptosis in human Caov3 cells at 0.25 to 2.0 uM incubated for 48 hrs by Hoechst 33342 staining based fluorescent microscopic method; format: functional, cell-based
[15] = tested on: Caov-3 cell line; assay: Induction of apoptosis in human Caov3 cells assessed as formation of apoptotic nuclei at 0.25 uM incubated for 48 hrs by Hoechst 33342 staining based fluorescent microscopic method relative to control; format: functional
[16] = tested on: Caov-3 cell line; assay: Induction of apoptosis in human Caov3 cells assessed as formation of apoptotic nuclei at 0.5 uM incubated for 48 hrs by Hoechst 33342 staining based fluorescent microscopic method relative to control; format: functional
[17] = tested on: Caov-3 cell line; assay: Induction of apoptosis in human Caov3 cells assessed as formation of apoptotic nuclei at 1.0 uM incubated for 48 hrs by Hoechst 33342 staining based fluorescent microscopic method relative to control; format: functional
[18] = tested on: Caov-3 cell line; assay: Induction of apoptosis in human Caov3 cells assessed as formation of apoptotic nuclei at 1.5 uM incubated for 48 hrs by Hoechst 33342 staining based fluorescent microscopic method relative to control; format: functional
[19] = tested on: Caov-3 cell line; assay: Induction of apoptosis in human Caov3 cells assessed as formation of apoptotic nuclei at 2.0 uM incubated for 48 hrs by Hoechst 33342 staining based fluorescent microscopic method relative to control; format: functional
[20] = tested on: Caov-3 cell line; assay: Induction of Cell cycle arrest in human Caov3 cells assessed as accumulation at G0/G1 phase at 1 uM incubated for 48 hrs by propidium iodide staining based flow cytometric analysis (reference value: 57.77%); format: functional
[21] = tested on: Caov-3 cell line; assay: Induction of Cell cycle arrest in human Caov3 cells assessed as accumulation at S phase at 1 uM incubated for 48 hrs by propidium iodide staining based flow cytometric analysis (reference value: 18.89%); format: functional
[22] = tested on: Caov-3 cell line; assay: Induction of Cell cycle arrest in human Caov3 cells assessed as accumulation at G2/M phase at 1 uM incubated for 48 hrs by propidium iodide staining based flow cytometric analysis (reference value: 22.68%); format: functional
[23] = tested on: Caov-3 cell line; assay: Induction of Cell cycle arrest in human Caov3 cells assessed as accumulation at G0/G1 phase at 1.5 uM incubated for 48 hrs by propidium iodide staining based flow cytometric analysis (reference value: 57.77%); format: functional
[24] = tested on: Caov-3 cell line; assay: Induction of Cell cycle arrest in human Caov3 cells assessed as accumulation at S phase at 1.5 uM incubated for 48 hrs by propidium iodide staining based flow cytometric analysis (reference value: 18.89%); format: functional
[25] = tested on: Caov-3 cell line; assay: Induction of Cell cycle arrest in human Caov3 cells assessed as accumulation at G2/M phase at 1.5 uM incubated for 48 hrs by propidium iodide staining based flow cytometric analysis (reference value: 22.68%); format: functional
[26] = tested on: Caov-3 cell line; assay: Induction of Cell cycle arrest in human Caov3 cells assessed as accumulation at G0/G1 phase at 2 uM incubated for 48 hrs by propidium iodide staining based flow cytometric analysis (reference value: 57.77%); format: functional
[27] = tested on: Caov-3 cell line; assay: Induction of Cell cycle arrest in human Caov3 cells assessed as accumulation at S phase at 2 uM incubated for 48 hrs by propidium iodide staining based flow cytometric analysis (reference value: 18.89%); format: functional
[28] = tested on: Caov-3 cell line; assay: Induction of Cell cycle arrest in human Caov3 cells assessed as accumulation at G2/M phase at 2 uM incubated for 48 hrs by propidium iodide staining based flow cytometric analysis (reference value: 22.68%); format: functional
[29] = tested on: Caov-3 cell line; assay: Antiinvasive activity in human Caov3 cells at 0.25 uM incubated for 48 hrs using hematoxylin by microscopy-based transwell assay; format: functional, cell-based
[30] = tested on: Caov-3 cell line; assay: Antiinvasive activity in human Caov3 cells at 0.5 uM incubated for 48 hrs using hematoxylin by microscopy-based transwell assay relative to control; format: functional
[31] = tested on: Caov-3 cell line; assay: Antiinvasive activity in human Caov3 cells at 1.0 uM incubated for 48 hrs using hematoxylin by microscopy-based transwell assay relative to control; format: functional

For `Fc1ccccc1-n1cc(COCc2ccccc2S)nn1`, the Activity [1] was “Active”, the “growth inhibition (GI)” value [2] was “Dose-dependent effect” and the “growth inhibition (GI)” value [3] was “Dose-dependent effect”. The “growth inhibition (GI)” value [4] was “Dose-dependent effect”, the “growth inhibition (GI)” value [5] was “Active” and the “growth inhibition (GI)” value [6] was “Active”. The “growth inhibition (GI)” value [7] was “Active”, the inhibition of growth at 2 µM [8] was 27% and the inhibition of growth at 2 µM [9] was 26%. For the same compound, the inhibition of growth at 2 µM [10] was 29%, the “growth inhibition (GI)” value [11] was “inactive” and the “growth inhibition (GI)” value [12] was “inactive”. The “growth inhibition (GI)” value [13] was “inactive”, the Activity [14] was “Active” and the Activity [15] was 1.26%. The Activity [16] was 8.67%, the Activity [17] was 21.54% and the Activity [18] was 45.89%. For the same compound, the Activity [19] was 62.53%, the Activity [20] was 61.63% and the Activity [21] was 16.23%. The Activity [22] was 21.19%, the Activity [23] was 64.57% and the Activity [24] was 14.61%. It also gave an Activity [25] of 20.07%, an Activity [26] of 69.54% and an Activity [27] of 11.48%. For the same compound, the Activity [28] was 18.08%, the Activity [29] was “inactive” and the Activity [30] was 84.54%. The Activity [31] was 67.76%.
